# Results as given in patent US20200190101A1, “Composition Containing Novel Glutamic Acid Derivative And Block Copolymer, And Use Thereof” (Nippon Kayaku Kabushiki Kaisha, priority 2015, published 2020).
# Tests used:
# [1] = system: γ-glutamyl transpeptidase (GGT); experiment: γ-Glutamyl transpeptidase (GGT) enzyme recognition test; format: biochemical; details: 2 mM PBS solution + 2 U/mL GGT solution, 37° C.; for Residual ratio of unchanged drug: HPLC
# Protocol: To 0.150 mL of this doxorubicin-bonded glutamic acid derivative (prodrug) PBS solution, 0.150 mL of a 2 U/mL GGT solution obtained by dissolving GGT (0.22 mg, 8 U/mg) (Sigma-Aldrich Company) in PBS (0.880 mL) was added, and the mixture was allowed to react at 37° C.
# The reaction liquid was analyzed by HPLC, and thus the residual ratio of the doxorubicin-bonded glutamic acid derivative (prodrug) and the production ratio of doxorubicin were determined.
# To 0.100 mL of the doxorubicin-bonded glutamic acid derivative PBS solution, 0.100 mL of a 2 U/mL GGT solution obtained by dissolving GGT (0.38 mg, 8 U/mg) (Sigma-Aldrich Company) in PBS (1.520 mL) was added, and the mixture was allowed to react at 37° C. […]
# [2] = Phosphate buffered physiological saline (PBS) solution stability test; format: physicochemical; details: PBS, 37° C., after 6.5 hours, HPLC
# Protocol: 0.148 mL of the doxorubicin-bonded glutamic acid derivative PBS solution was dissolved in 0.148 mL of a PBS solution, and the solution was allowed to react at 37° C.
# PBS (0.100 mL) was added to the EHC-bonded glutamic acid derivative solution (0.100 mL), and the mixture was allowed to react at 37° C. The reaction liquid was analyzed by HPLC, and thereby the residual ratio of the EHC-bonded glutamic acid derivative was determined.
# PBS (0.117 mL) was added to the camptothecin-bonded glutamic acid derivative solution (0.117 mL), and the mixture was allowed to react at 37° C. The reaction liquid was analyzed by HPLC, and thereby the residual ratio of the glutamic acid derivative was determined.
# The reaction liquid was analyzed by HPLC, and thereby the residual ratio of the EHC-bonded glutamic acid derivative was determined.
# [3] = system: OS-RC-2 cells having high GGT activity; experiment: cells; format: cell-based, human; details: Homo sapiens; OS-RC-2 cells, 10 μM, 6 hours exposure then 3 days incubation; read-out: Cell proliferation inhibitory activity
# Protocol: (§1) After the cells were incubated for 6 hours, the interior of the wells was washed, and after the cells were further incubated for 3 days, the cells were immobilized with methanol and stained using Methylene Blue dye. After staining, the dye was extracted with a 0.3% aqueous solution of hydrochloric acid was extracted, and the light absorbance at 660 nm was measured. For the light absorbance thus obtained, the cell proliferation suppressive activity was evaluated based on the reduction ratio for the light absorbance measured from cells to which the compound was not added.
# (§2) By a similar operation, the cell proliferation suppressive activity was evaluated from the light absorbance, using doxorubicin that was not converted to a glutamic acid derivative. The results are shown in FIG. 1 (OS-RC-2 cells having high GGT activity) and FIG. 2 (SK-OV-3 cells having low GGT activity).
# (§3) The cell proliferation inhibitory activity of the EHC-bonded glutamic acid derivative according to Synthesis Example 6 was evaluated using OS-RC-2 cells (RIKEN BioResource Center), which are known to have high GGT activity, and SK-OV-3 cells (American Type Culture Collection), which are known to have low GGT activity.
# (§4) On a 96-well plate, OS-RC-2 cells having high GGT activity and SK-OV-3 cells having low GGT activity were each inoculated in an amount of 4,000 cells/well and were incubated for one day at 37° C. and 5% CO2, and then the EHC prodrug according to Synthesis Example 6 was added to the cells at a final concentration of 0.0001 to 1 μM. After the cells were incubated for 6 hours, the interior of the wells was washed, and the cells were further incubated for 3 days. After the incubation, the cells were immobilized with methanol and were stained using Methylene Blue dye. After staining, the dye was extracted with a 0.3% aqueous solution of hydrochloric acid, and the light absorbance at 660 nm was measured. The cell proliferation suppressive activity was evaluated based on the reduction ratio for the light absorbance thus obtained, with respect to the light absorbance measured from cells to which the compound was not added.
# (§5) By a similar operation, EHC, which was an active ingredient of Synthesis Example 6, was used without modification, and the cell proliferation suppressive activity was evaluated from the light absorbance.
# [4] = system: SK-OV-3 cells having low GGT activity; experiment: cells; format: cell-based; details: Homo sapiens; SK-OV-3 cells, 10 μM, 6 hours exposure then 3 days incubation; read-out: Cell proliferation inhibitory activity
# Protocol: as §1, §2, §3, §4, §5
# [5] = system: OS-RC-2 cells having high GGT activity; format: cell-based, human; details: GGsTop 10 μM, compound 0.039 to 10 μM
# Protocol: OS-RC-2 cells were inoculated by a method similar to that of Test Example 3. […] After the cells were incubated for 6 hours, the interior of the wells was washed, and after the cells were further incubated for 3 days, the cell proliferation suppressive activity was evaluated by a method similar to that of Test Example 3.
# By a similar operation, the cell proliferation suppressive activity was evaluated using doxorubicin that was not glutamic acid-derivatized, from the light absorbance of the compound.
# The GGT activity dependency of the cell proliferation inhibitory activity of the EHC-bonded glutamic acid derivative according to Synthesis Example 6 was evaluated using OS-RC-2 cells having high GGT activity.
# OS-RC-2 cells were inoculated by a method similar to that of Test Example 10. After the cells were incubated for one day, GGsTop (Wako Pure Chemical Industries, Ltd.), which is a GGT inhibitor, was added to the cells at a final concentration of 10 μM, and the cells were incubated for one hour. Subsequently, the EHC-bonded glutamic acid derivative according to Synthesis Example 6 was added to the cells at a final concentration of 0.0001 to 1 μM. After the cells were incubated for 6 hours, the interior of the wells was washed, and after the cells were incubated for 3 days, the cell proliferation suppressive activity was evaluated by a method similar to that of Test Example 10.
# By a similar operation, the cell proliferation suppressive activity was evaluated using EHC, which is the active ingredient of Synthesis Example 6, from the light absorbance of the compound.
# [6] = system: human renal cell cancer OS-RC-2 tumors; experiment: Test on antitumor effect of Synthesis Example 1, OS-RC-2 tumors; format: in vivo, SCID mice; details: two times at an interval of 14 days
# Protocol: By an operation similar to that of Test Example 12, human renal cell cancer OS-RC-2 tumors were subcutaneously transplanted into SCID mice, and tumor engraftment was confirmed.
# After the administration, the major axis (L) and the minor axis (W) of a tumor were measured using calipers at an interval of 2 to 3 days, the tumor volume was calculated by the formula: (L×W^2)/2, and the tumor volume change rate from the administration initiation day was determined.
# [7] = Test on pharmacokinetics of Example 1 (blood plasma); format: in vivo, mice; details: mouse, iv, 10 mg/kg in terms of DXR i.v., read-out: AUC0-6 hr. Unchanged drug (DXR prodrug)
# Protocol: At time points of 5 minutes, 1 hour, 3 hours, and 6 hours after administration, blood plasma was collected under ether anesthesia.
structure (smiles),measurement,setting,value
"COc1cccc2c1C(=O)c1c(O)c3c(c(O)c1C2=O)C[C@@](O)(C(=O)CO)CC3OC1CC(NC(=O)OCc2ccc(NC(=O)CCC(N)C(=O)O)cc2)C(O)C(C)O1 (stereo partly drawn) [Synthesis Example 1, (((4-((S)-4-amino-4-carboxybutanamide)benzyl)oxy)carbonyl)doxorubicin]",Doxorubicin production rate,[1]; reaction time 0 hr,0%
same,Residual ratio of unchanged drug,[1]; reaction time 0 hr,100%
same,Doxorubicin production rate,[1]; reaction time 1 hr,49%
same,Residual ratio of unchanged drug,[1]; reaction time 1 hr,39%
same,Doxorubicin production rate,[1]; reaction time 6.5 hr,98%
same,Residual ratio of unchanged drug,[1]; reaction time 6.5 hr,1%
same,Stability in PBS solution (release of doxorubicin),[2],did not release doxorubicin in a PBS solution and was chemically stable
same,inhibition at 10 µM,[3],76%
same,inhibition at 10 µM,[4],13%
same,Effect of GGT inhibitor on cell proliferation suppressive activity,[5],completely inhibited the activity
same,Antitumor effect (relative tumor volume) versus control drug,"[6]; 20 mg/kg-administered group, i.v.",antitumor effect that was equal to the effect of the doxorubicin hydrochloride-administered group (5 mg/kg)
same,Antitumor effect (relative tumor volume),[6]; 5 or 20 mg/kg i.v.,dose-dependent antitumor effect
same,AUC(0-t),[7],6240 ng·h/mL
